This passage reports IC50 results from US20210170033A1, “NOVEL CONJUGATES OF A PHARMACEUTICAL AGENT AND A MOIETY CAPABLE OF BINDING TO A GLUCOSE SENSING PROTEIN” (SANOFI, priority 2017, published 2021).

In assay [1] the test system is A2780 Human Carcinoma Cells. The experiment in a line: Glucose displacement assay (ATP measurement, CellTiter-Glo). The following applies: ATP measurement in A2780 cells, 0.5 μM rotenone. It counts as cell-based. The protocol: 2. Glucose Displacement Assay (ATP Measurement)
30,000 A2780 Human Carcinoma Cells are seeded per well in a Greiner 96-well plate. Cells are expanded and cultured in RPMI 1640 medium+GlutaMAX® with 10% FCS and 11 mM glucose, at 37° C. with 5% CO2. After 44 h, culture media is changed and washed once with PBS to starvation media consisting of RPMI 1640 medium with 1% FCS without glucose for 2 hours. Cells are then washed with KRB buffer, followed by incubation for 20 min at 37° C. of the treatment mix consisting of 60 μL KRB buffer/well and 10 μL of compound or DMSO 10×. 10 μl of rotenone is added to the mix to a final concentration of 0.5 μM. Cell plates are left for 2 min at room temperature. 20 μL of different glucose concentrations are added to the mix—typically 0.1 to 10 mM range—.
Cells are incubated for another 15 min at 37° C., before measuring ATP with the CellTiter-Glo® Assay, under manufacturer's guidance, but without the equilibration step at room temperature for 30 min. In brief, 100 μl of Cell-Titer-Glo® Reagent is added to the wells containing already 100 μl of the previous reaction mix. Plates are mixed for 2 min at 800 rpm, followed by incubation at room temperature for 10 min to stabilize the luminescent signal. Luminescence is then recorded with the Tekan Ultra Evolution reader.

The test system of assay [2] is A2780 cells. The experiment in a line: Deoxy-glucose uptake assay in A2780 cells (14C 2-deoxy-D-glucose transport). It counts as cell-based. The following applies: Homo sapiens, 20 min; inhibition of 14C 2-deoxy-D-glucose transport into A2780 cells; 20 min compound incubation; read-out: IC50. Put shortly:
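Radiolabelled 2-deoxy-D-glucose transport over 20 min was scintillation-counted in A2780 cells, grown 48 h, after 20 min compound exposure in KRB. Untreated cells gave the 100% reference, with Cytochalasin B defining background. IC50 values were regressed from triplicate means across 7 or 14 concentrations.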

[3] abbreviates: 1 mM glucose, read-out: IC50 [μM] at 1 mM glucose.
Setting [4] is: 10 mM glucose, read-out: IC50 [μM] at 10 mM glucose.

Like-named read-outs stand apart in the source and are kept apart here.

With `CO[C@H]1O[C@H](CO)[C@@H](O)[C@H](O)[C@H]1OC(=O)c1cc(Cl)c(OCc2cccc(NC(=O)CCC(=O)OC(C)(C)C)c2)c(Cl)c1C` [Example 347], the results for the 50% inhibitory concentration (IC50) in assay [1] (setting [3]), in assay [1] (setting [4]) and in assay [2] were 0.86 µM, 5.28 µM and 2.8 µM, respectively.

Consider `CO[C@H]1O[C@H](CO)[C@@H](O)[C@H](O)[C@H]1OC(=O)c1cc(Cl)c(OCc2cccc(CNC(=O)CCCC(=O)OC(C)(C)C)c2)c(Cl)c1C` [Example 349], for which the IC50 in assay [1] (setting [3]) was found to be 1.46 µM; in assay [1] (setting [4]), 7.76 µM; in assay [2] it was 2.5 µM.

Take `CO[C@H]1O[C@H](CO)[C@@H](O)[C@H](O)[C@H]1OC(=O)c1cc(Cl)c(OCc2cccc(NC(=O)CCCC(=O)OC(C)(C)C)c2)c(Cl)c1C` [Example 351]: the 50% inhibitory concentration (IC50) in assay [1] (setting [3]) worked out at 0.55 µM; in assay [1] (setting [4]) it was 1.97 µM; in assay [2], 0.8 µM.

Take `COC(=O)/C=C/c1ccc(COc2cc(OC)c(C(=O)O[C@H]3[C@@H](OC)O[C@H](CO)[C@@H](O)[C@@H]3O)cc2Cl)cc1` [Example 352]: the values for the IC50 in assay [1] (setting [3]), in assay [1] (setting [4]) and in assay [2] were 0.26 µM, 1.05 µM and 0.04 µM, respectively.

Consider `COc1cc(OCc2cn3c(C)cccc3n2)c(Cl)cc1C(=O)O[C@H]1[C@@H](OC)O[C@H](CO)[C@@H](O)[C@@H]1O` [Example 353], for which the values for the IC50 in assay [1] (setting [3]), in assay [1] (setting [4]) and in assay [2] were 1.5 µM, 6.07 µM and 0.1 µM, respectively.

As for `COC(=O)CCc1ccc(COc2cc(OC)c(C(=O)N[C@H]3[C@@H](OC)O[C@H](CO)[C@@H](O)[C@@H]3O)cc2Cl)cc1` [Example 356], the IC50 is 3.68 µM in assay [1] (setting [3]), 12.1 µM in assay [1] (setting [4]) and 2.7 µM in assay [2].

As to `COc1cc(OCc2cccc(CNC(=O)OC(C)(C)C)c2)c(Cl)cc1C(=O)O[C@H]1[C@@H](OC)O[C@H](CO)[C@@H](O)[C@@H]1O` [Example 361], the IC50 came to 1.93 µM in assay [1] (setting [3]), 8.11 µM in assay [1] (setting [4]) and 0.8 µM in assay [2].

Consider `COc1cc(OCc2cccc(NC(=O)CCCC(=O)OC(C)(C)C)c2)c(Cl)cc1C(=O)O[C@@H]1[C@@H](O)[C@@H](OC)O[C@H](CO)[C@H]1O` [Example 364], for which the results for the concentration for half-maximal inhibition (IC50) in assay [1] (setting [3]), in assay [1] (setting [4]) and in assay [2] were 3.88 µM, 12.3 µM and 4.4 µM, respectively.

Regarding `C#CCCCCCCCn1c(COc2c(Cl)cc(C(=O)O[C@H]3[C@@H](OC)O[C@H](CO)[C@@H](O)[C@@H]3O)c(C)c2Cl)nc2ccccc21` [Example 371], the IC50 in assay [1] (setting [3]) amounted to 0.86 µM; in assay [1] (setting [4]), 1.44 µM; in assay [2], 0.4 µM.

For `COc1cc(OCc2cccc(CNC(=O)CCC(=O)OC(C)(C)C)c2)c(Cl)cc1C(=O)O[C@H]1[C@@H](OC)O[C@H](CO)[C@@H](O)[C@@H]1O` [Example 372], the IC50 in assay [1] (setting [3]) turned out to be 2.89 µM; in assay [1] (setting [4]), 15 µM; in assay [2], 2.4 µM.

As for `COc1cc(OCc2cccc(CNC(=O)CCCC(=O)OC(C)(C)C)c2)c(Cl)cc1C(=O)O[C@H]1[C@@H](OC)O[C@H](CO)[C@@H](O)[C@@H]1O` [Example 373], the results for the IC50 in assay [1] (setting [3]), in assay [1] (setting [4]) and in assay [2] were 6.44 µM, 26.7 µM and 4.1 µM, respectively.

In the case of `COc1cc(OCc2cccc(NC(=O)CCC(=O)OC(C)(C)C)c2)c(Cl)cc1C(=O)O[C@H]1[C@@H](OC)O[C@H](CO)[C@@H](O)[C@@H]1O` [Example 375], the half-inhibitory concentration (IC50) in assay [1] (setting [3]) came to 1.41 µM; in assay [1] (setting [4]), 7.19 µM; in assay [2], 1.6 µM.

For `COc1cc(OCc2cccc(NC(=O)CCCC(=O)OC(C)(C)C)c2)c(Cl)cc1C(=O)O[C@H]1[C@@H](OC)O[C@H](CO)[C@@H](O)[C@@H]1O` [Example 376], the IC50 in assay [1] (setting [3]) turned out to be 1.02 µM; in assay [1] (setting [4]), 3.73 µM; in assay [2], 0.8 µM.

`COC(=O)[C@H](CCC(=O)Nc1cccc(COc2cc(OC)c(C(=O)O[C@H]3[C@@H](OC)O[C@H](CO)[C@@H](O)[C@@H]3O)cc2Cl)c1)NC(=O)OC(C)(C)C` [Example 377]: the IC50 was found to be 1.34 µM in assay [1] (setting [3]), 7.83 µM in assay [1] (setting [4]) and 2.4 µM in assay [2].

Regarding `COc1cc(OCc2cccc(OCCCCCC(=O)O)c2)c(Cl)cc1C(=O)O[C@H]1[C@@H](OC)O[C@H](CO)[C@@H](O)[C@@H]1O` [Example 379], the IC50 in assay [1] (setting [3]) was determined as 5.39 µM; in assay [1] (setting [4]), 24.1 µM; in assay [2], 8.3 µM.

With `COc1cc(OCc2cccc(CNC(=O)CCCCCCC(=O)OC(C)(C)C)c2)c(Cl)cc1C(=O)O[C@H]1[C@@H](OC)O[C@H](CO)[C@@H](O)[C@@H]1O` [Example 401], the IC50 stood at 2.95 µM in assay [1] (setting [3]), 7.81 µM in assay [1] (setting [4]) and 0.6 µM in assay [2].

Regarding `COc1cc(OCc2cccc(NC(=O)CCCCCCC(=O)OC(C)(C)C)c2)c(Cl)cc1C(=O)O[C@H]1[C@@H](OC)O[C@H](CO)[C@@H](O)[C@@H]1O` [Example 402], the IC50 worked out at 3.24 µM in assay [1] (setting [3]), 7.35 µM in assay [1] (setting [4]) and 0.3 µM in assay [2].

In the case of `COc1cc(OCc2cccc(NC(=O)CCCC(=O)O)c2)c(Cl)cc1C(=O)O[C@H]1[C@@H](OC)O[C@H](CO)[C@@H](O)[C@@H]1O` [Example 407], the IC50 in assay [1] (setting [3]) is 16.3 µM; in assay [1] (setting [4]), over 33 µM; in assay [2] it was 8.6 µM.

Consider `COc1cc(OCc2cccc(NC(=O)CCCCCCC(=O)O)c2)c(Cl)cc1C(=O)O[C@H]1[C@@H](OC)O[C@H](CO)[C@@H](O)[C@@H]1O` [Example 409], for which the IC50 in assay [1] (setting [3]) was determined as 7.63 µM; in assay [1] (setting [4]) it was 14.5 µM; in assay [2] it was 4.1 µM.

As for `COC(=O)[C@H](CCCCNC(=O)CCCC(=O)Nc1cccc(COc2cc(OC)c(C(=O)O[C@H]3[C@@H](OC)O[C@H](CO)[C@@H](O)[C@@H]3O)cc2Cl)c1)NC(=O)OC(C)(C)C` [Example 412], the IC50 turned out to be 6.02 µM in assay [1] (setting [3]), 13.9 µM in assay [1] (setting [4]) and 2.3 µM in assay [2].

For `COC(=O)[C@H](CCCCNC(=O)CCCCCCC(=O)NCc1cccc(COc2cc(OC)c(C(=O)O[C@H]3[C@@H](OC)O[C@H](CO)[C@@H](O)[C@@H]3O)cc2Cl)c1)NC(=O)OC(C)(C)C` [Example 413], the concentration for half-maximal inhibition (IC50) in assay [1] (setting [3]) was 10.3 µM; in assay [1] (setting [4]) it was 30.9 µM; in assay [2], 5.1 µM.

Take `COc1cc(OCc2cccc(CNC(=O)OC(C)(C)C)c2)c(Cl)cc1C(=O)N[C@H]1[C@H](OC)O[C@H](CO)[C@@H](O)[C@@H]1O` [Example 419]: the values for the IC50 in assay [1] (setting [3]), in assay [1] (setting [4]) and in assay [2] were 4.39 µM, 11.6 µM and 1.1 µM, respectively.

Take `COc1cc(OCc2cccc(CNC(=O)CCC(=O)OC(C)(C)C)c2)c(Cl)cc1C(=O)N[C@H]1[C@@H](OC)O[C@H](CO)[C@@H](O)[C@@H]1O` [Example 424]: the IC50 in assay [1] (setting [3]) came out at 9.79 µM; in assay [1] (setting [4]), 25.4 µM; in assay [2] it was 3.3 µM.

Consider `COc1cc(OCc2cccc(CNC(=O)CCCC(=O)OC(C)(C)C)c2)c(Cl)cc1C(=O)N[C@H]1[C@@H](OC)O[C@H](CO)[C@@H](O)[C@@H]1O` [Example 425], for which the IC50 in assay [1] (setting [3]) was 7.97 µM; in assay [1] (setting [4]), 14.5 µM; in assay [2], 2.5 µM.

In the case of `COc1cc(OCc2cccc(CNC(=O)CCCCCCC(=O)OC(C)(C)C)c2)c(Cl)cc1C(=O)N[C@H]1[C@@H](OC)O[C@H](CO)[C@@H](O)[C@@H]1O` [Example 426], the IC50 in assay [1] (setting [3]) is 5.56 µM; in assay [1] (setting [4]) it was 19.5 µM; in assay [2] it was 2.8 µM.

`COc1cc(OCc2cccc(NC(=O)CCCCCCC(=O)OC(C)(C)C)c2)c(Cl)cc1C(=O)N[C@H]1[C@@H](OC)O[C@H](CO)[C@@H](O)[C@@H]1O` [Example 430]: the values for the IC50 in assay [1] (setting [3]), in assay [1] (setting [4]) and in assay [2] were 3.9 µM, 7.8 µM and 1.7 µM, respectively.

With `COC(=O)[C@H](CCCCNC(=O)CCCCCCC(=O)NCc1cccc(COc2cc(OC)c(C(=O)N[C@H]3[C@@H](OC)O[C@H](CO)[C@@H](O)[C@@H]3O)cc2Cl)c1)NC(=O)OC(C)(C)C` [Example 437], the results for the IC50 in assay [1] (setting [3]), in assay [1] (setting [4]) and in assay [2] were 19.5 µM, over 33 µM and 17.6 µM, respectively.

With `COC(=O)[C@H](CCCCNC(=O)CCCCCCCCC(=O)NCc1cccc(COc2cc(OC)c(C(=O)N[C@H]3[C@@H](OC)O[C@H](CO)[C@@H](O)[C@@H]3O)cc2Cl)c1)NC(=O)OC(C)(C)C` [Example 438], the 50% inhibitory concentration (IC50) was 13 µM in assay [1] (setting [3]), over 33 µM in assay [1] (setting [4]) and 13.8 µM in assay [2].

Take `CO[C@H]1O[C@H](CO)[C@@H](O)[C@H](O)[C@H]1NC(=O)c1cc(Cl)c(OCc2cccc(CNC(=O)OC(C)(C)C)c2)c(Cl)c1C` [Example 439]: the IC50 in assay [1] (setting [3]) is 2.5 µM; in assay [1] (setting [4]) it was 11.5 µM; in assay [2], 3.3 µM.

`COC(=O)[C@H](CCCCNC(=O)CCCC(=O)Nc1cccc(COc2cc(OC)c(C(=O)N[C@H]3[C@@H](OC)O[C@H](CO)[C@@H](O)[C@@H]3O)cc2Cl)c1)NC(=O)OC(C)(C)C` [Example 440]: the IC50 in assay [1] (setting [3]) was 18 µM; in assay [1] (setting [4]) it was over 33 µM; in assay [2], 7 µM.
